From patent US20140023611A1 (priority 2010, published 2014)

Legend:
[1] = Determination of compound Cmax and AUC after oral gavage (plasma LC-MS/MS); type: in vivo, Sprague-Dawley rats; conditions: Sprague-Dawley, rat, plasma, po, Structure (I) examples, Table 15, actual oral dose 3-15 mg/kg, plasma 0.5-4 h
Method in brief: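 Sprague-Dawley rats dosed by oral gavage at nominal 2.5 or 10 mg/kg; blood drawn at 0.5, 1, 2 and 4 h into K2EDTA. Plasma protein-precipitated with acetonitrile plus internal standard and analysed by LC-MS/MS against a plasma standard curve to derive Cmax and AUC.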

[2] = Stability of compounds in simulated gastric fluid (SGF); type: in vitro ADME; conditions: simulated gastric fluid (3 mg/mL pepsin), incubation time 6 hr, relative to t=0
Method: (§1) Test compounds were incubated at […] in simulated gastric fluid (SGF; standard USP solution with 3 mg/mL pepsin) or simulated intestinal fluid (SIF; standard USP solution with 3 mg/mL pancreatin) for 3 hr or 6 hr. HPLC-UV or HPLC-MS were used to determine test compound levels using peak area %. Results (Table 14) were reported as the percentage of test compound remaining after incubation in a given condition relative to test compound present at t=0 in the same condition.

[3] = Stability of compounds in simulated intestinal fluid (SIF); type: in vitro ADME; conditions: simulated intestinal fluid (3 mg/mL pancreatin), incubation time 6 hr, relative to t=0
Method: as §1

[4] = biological target: T1, rat NaP2b (SLC34A2) (Rattus norvegicus, UniProt Q9JJ09); assay: Inhibition of NaP2b-mediated Pi (33P) uptake in transfected HEK293 cells, rat NaP2b; type: cell-based; conditions: 33P Pi uptake, 0.1 mM phosphate, value given as pIC50 range
T1 construct: host or cells: HEK293
T1 sequence (Q9JJ09 1-695): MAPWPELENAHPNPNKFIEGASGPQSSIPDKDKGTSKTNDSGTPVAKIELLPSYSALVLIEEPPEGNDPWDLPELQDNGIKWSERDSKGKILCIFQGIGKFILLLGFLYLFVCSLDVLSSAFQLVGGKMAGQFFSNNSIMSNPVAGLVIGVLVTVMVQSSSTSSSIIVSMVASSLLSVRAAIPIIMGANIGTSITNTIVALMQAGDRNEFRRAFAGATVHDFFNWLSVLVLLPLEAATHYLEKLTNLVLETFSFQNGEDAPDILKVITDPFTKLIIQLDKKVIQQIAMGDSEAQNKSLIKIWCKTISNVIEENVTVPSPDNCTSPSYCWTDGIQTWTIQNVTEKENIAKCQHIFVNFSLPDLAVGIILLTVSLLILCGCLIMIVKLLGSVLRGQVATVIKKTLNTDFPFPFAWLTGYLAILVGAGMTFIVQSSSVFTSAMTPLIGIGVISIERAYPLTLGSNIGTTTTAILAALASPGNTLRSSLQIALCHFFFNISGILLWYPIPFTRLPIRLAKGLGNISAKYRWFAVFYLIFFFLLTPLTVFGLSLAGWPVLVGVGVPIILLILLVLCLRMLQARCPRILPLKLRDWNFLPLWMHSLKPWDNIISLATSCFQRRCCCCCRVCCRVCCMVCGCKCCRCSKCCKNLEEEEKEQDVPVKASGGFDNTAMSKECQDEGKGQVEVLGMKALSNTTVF
Method in brief: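 HEK293 cells were transiently transfected with NaP2b cDNA using Lipofectamine and grown near confluence. Compounds were tested at twelve concentrations from 0.1 nM to 30 uM in duplicate, and 33P-phosphate uptake was counted by scintillation after lysis. Results are expressed as pIC50.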

| AUC [1] | Cmax [1] | % remaining, SGF [2] | % remaining, SIF [3] | IC50 [4] | SMILES |
| --- | --- | --- | --- | --- | --- |
| < 10 ng·h/mL | < 10 ng/mL | >80% | >80% | 1 to 7.94 µM | O=C(CCOCCOCCOCCOCCSCc1cccc(C(=O)Nc2ccc(N3CCCCC3)cc2-c2cc(C(=O)NCc3cccc(C(F)(F)F)c3)ccn2)c1)NCCOCCOCCOCCOCCOCCOCCOCCO [Example 149, 2-(2-(3-(41-hydroxy-17-oxo-5,8,11,14,21,24,27,30,33,36,39-undecaoxa-2-thia-18-azahentetracontyl)benzamido)-5-(piperidin-1-yl)phenyl)-N-(3-(trifluoromethyl)benzyl)isonicotinamide] |
| < 30 ng·h/mL | < 10 ng/mL | >80% | >80% | 1 to 7.94 µM | CCN(CC)c1ccc(NC(=O)c2cccc(CSCCOCCOCCOCCOCCC(=O)NCCOCCOCCOCCOCCOCCOCCOCCOC)c2)c(-c2cc(C(=O)N[C@H]3CCCc4ccccc43)ccn2)c1 [Example 157.1, (S)-2-(5-(diethylamino)-2-(3-(27-oxo-2,5,8,11,14,17,20,23,30,33,36,39-dodecaoxa-42-thia-26-azatritetracontan-43-yl)benzamido)phenyl)-N-(1,2,3,4-tetrahydronaphthalen-1-yl)isonicotinamide] |
| < 10 ng·h/mL | < 10 ng/mL | >80% | >80% | 1 to 7.94 µM | CCN(CC)CCN(C)C(=O)CCOCCOCCOCCOCCSCc1cccc(C(=O)Nc2ccc(N3CCCCC3)cc2-c2cc(C(=O)NCc3cccc(C(F)(F)F)c3)ccn2)c1 [Example 152, 2-(2-(3-(21-ethyl-18-methyl-17-oxo-5,8,11,14-tetraoxa-2-thia-18,21-diazatricosyl)benzamido)-5-(piperidin-1-yl)phenyl)-N-(3-(trifluoromethyl)benzyl)isonicotinamide] |
| < 10 ng·h/mL | < 10 ng/mL | >80% | >80% | 10 to 31.6 µM | CN(CCOCCOCCOCCC(=O)O)C(=O)c1cccc(C(=O)Nc2ccc(N3CCCCC3)cc2-c2cc(C(=O)NCc3cccc(C(F)(F)F)c3)ccn2)c1 [Example 248, 3-[2-(2-{2-[N-methyl-1-(3-{[4-(piperidin-1-yl)-2-[4-({[3-(trifluoromethyl)phenyl]methyl}carbamoyl)pyridin-2-yl]phenyl}carbamoyl}phenyl)formamido]ethoxy}ethoxy)ethoxy]propanoic acid] |
| < 50 ng·h/mL | < 30 ng/mL | >80% | >80% | < 1 µM | CCN(CC)c1ccc(NC(=O)c2cccc(C(=O)N(C)CCN3CCOCC3)c2)c(-c2cc(C(=O)N[C@H]3CCCc4ccccc43)ccn2)c1 [Example 131, (S)—N^1-(4-(diethylamino)-2-(4-((1,2,3,4-tetrahydronaphthalen-1-yl)carbamoyl)pyridin-2-yl)phenyl)-N^3-methyl-N^3-(2-morpholinoethyl)isophthalamide] |
| < 30 ng·h/mL | < 10 ng/mL | >80% | >80% | 1 to 7.94 µM | CCN(CC)c1ccc(NC(=O)c2cccc(CSCCOCCOCCOCCOCCC(=O)NCCOCCOCCOCCOCCOCCOCCOCCOC)c2)c(-c2cc(C(=O)NCc3cccc(C(F)(F)F)c3)ccn2)c1 [Example 165, 2-(5-(diethylamino)-2-(3-(27-oxo-2,5,8,11,14,17,20,23,30,33,36,39-dodecaoxa-42-thia-26-azatritetracontan-43-yl)benzamido)phenyl)-N-(3-(trifluoromethyl)benzyl)isonicotinamide] |
| < 10 ng·h/mL | < 10 ng/mL | >80% | >80% | < 1 µM | CCN(CC)c1ccc(NC(=O)c2cccc(CSCCOCCOCCOCCOCCC(=O)O)c2)c(-c2cc(C(=O)N[C@H]3CCCc4ccccc43)ccn2)c1 [Example 157, (S)-1-(3-(4-(diethylamino)-2-(4-(1,2,3,4-tetrahydronaphthalen-1-ylcarbamoyl)pyridin-2-yl)phenylcarbamoyl)phenyl)-5,8,11,14-tetraoxa-2-thiaheptadecan-17-oic acid] |
| < 30 ng·h/mL | < 30 ng/mL | >80% | 60-80% | 1 to 7.94 µM | COCCN(C)C(=O)N1CCN(CCN(C)Cc2cccc(C(=O)Nc3ccc(N4CCCCC4)cc3-c3cc(C(=O)NCc4cccc(C(F)(F)F)c4)ccn3)c2)CC1 [Example 209, N-(2-methoxyethyl)-N-methyl-4-(2-(methyl(3-(4-(piperidin-1-yl)-2-(4-(3-(trifluoromethyl)benzylcarbamoyl)pyridin-2-yl)phenylcarbamoyl)benzyl)amino)ethyl)piperazine-1-carboxamide] |
| < 30 ng·h/mL | < 10 ng/mL | >80% | >80% | 10 to 31.6 µM | CN(CCN1CCC[C@H]1C(=O)NCCOCCOCCOCCC(=O)O)C(=O)c1cccc(C(=O)Nc2ccc(N3CCCCC3)cc2-c2cc(C(=O)N[C@H]3CCCc4ccccc43)ccn2)c1 [Example 193, 1-((S)-1-(2-(N-methyl-3-((4-(piperidin-1-yl)-2-(4-(((S)-1,2,3,4-tetrahydronaphthalen-1-yl)carbamoyl)pyridin-2-yl)phenyl)carbamoyl)benzamido)ethyl)pyrrolidin-2-yl)-1-oxo-5,8,11-trioxa-2-azatetradecan-14-oic acid] |
| < 10 ng·h/mL | < 10 ng/mL | >80% | >80% | 1 to 7.94 µM | O=C(NCc1cccc(C(F)(F)F)c1)c1ccnc(-c2cc(N3CCCCC3)ccc2NC(=O)c2cccc(CSCCOCCOCCOCCOCCC(=O)N3CCN(CCOCCO)CC3)c2)c1 [Example 147] |
| < 50 ng·h/mL | < 30 ng/mL | >80% | >80% | 1 to 7.94 µM | COCCOCCOCCOCCOCCOCCOCCN(C)CCN(C)C(=O)c1cccc(C(=O)Nc2ccc(N3CCCCC3)cc2-c2cc(C(=O)N[C@H]3CCCc4ccccc43)ccn2)c1 [Example 333, (S)—N^1-Methyl-N^1-(23-methyl-2,5,8,11,14,17,20-heptaoxa-23-azapentacosan-25-yl)-N3-(4-(piperidin-1-yl)-2-(4-(1,2,3,4-tetrahydronaphthalen-1-ylcarbamoyl)pyridin-2-yl)phenyl)isophthalamide] |
| < 10 ng·h/mL | < 10 ng/mL | >80% | 40-60% | 1 to 7.94 µM | O=C(NCc1cccc(C(F)(F)F)c1)c1ccnc(-c2cc(N3CCCCC3)ccc2NC(=O)c2cccc(CSCCOCCOCCOCCOCCC(=O)N(CCO)CCO)c2)c1 [Example 151, 2-(2-(3-(20-hydroxy-18-(2-hydroxyethyl)-17-oxo-5,8,11,14-tetraoxa-2-thia-18-azaicosyl)benzamido)-5-(piperidin-1-yl)phenyl)-N-(3-(trifluoromethyl)benzyl)isonicotinamide] |
| < 10 ng·h/mL | < 10 ng/mL | >80% | >80% | 1 to 7.94 µM | CN(CC(=O)N1CCN(CCOCCO)CC1)C(=O)c1cccc(C(=O)Nc2ccc(N3CCCCC3)cc2-c2cc(C(=O)N[C@H]3CCCc4ccccc43)ccn2)c1 [Example 246, (S)—N1-(2-(4-(2-(2-hydroxyethoxy)ethyl)piperazin-1-yl)-2-oxoethyl)-N1-methyl-N3-(4-(piperidin-1-yl)-2-(4-(1,2,3,4-tetrahydronaphthalen-1-ylcarbamoyl)pyridin-2-yl)phenyl)isophthalamide] |

| SMILES | AUC [1] | Cmax [1] | % remaining, SGF [2] | % remaining, SIF [3] | IC50 [4] |
| --- | --- | --- | --- | --- | --- |
| O=C(O)CCOCCOCCOCCOCCCc1cccc(C(=O)Nc2ccc(OC3CCC3)cc2-c2cc(C(=O)N[C@H]3CCCc4ccccc43)ccn2)c1 [Example 285, (S)-16-(3-((4-cyclobutoxy-2-(4-((1,2,3,4-tetrahydronaphthalen-1-yl)carbamoyl)pyridin-2-yl)phenyl)carbamoyl)phenyl)-4,7,10,13-tetraoxahexadecan-1-oic acid] | < 50 ng·h/mL | < 30 ng/mL | 60-80% | >80% | < 1 µM |
